Laboratory results from patent publication US7491796B1, “Retro-inversion peptides that target GIT receptors and related methods” (Merrion Research III Limited, priority 1998, dated 2009).
Where no end group is shown, it is not given here. The star is where a group is joined. Dansyl = CN(C)c1cccc2c(S(=O)(=O)*)cccc12

Test system: Caco-2 cell membrane (P100) fractions
Assay: Binding of dansylated peptides to Caco-2 cell membrane (P100) fractions by ELISA
Settings: for Kd: Caco-2 P100 fractions, ELISA, read-out: KD (concentration of the peptide required to reach half maximal binding to Caco-2 P100 fractions); for Binding to P100 relative to ZElan021 (arbitrary value 1.00), P100 assay number 4: assay 4; for Binding to P100 relative to ZElan021 (arbitrary value 1.00), P100 assay number 4 / Binding to P100 relative to ZElan021 (arbitrary value 1.00), P100 assay number 5 / Binding to P100 relative to ZElan021 (arbitrary value 1.00), P100 assay number 6 / Binding to P100 relative to ZElan021 (arbitrary value 1.00), P100 assay number 7 / Binding to P100 relative to ZElan021 (arbitrary value 1.00), P100 assay number 8: peptide at 25 μg/ml; for Binding to P100 relative to ZElan021 (arbitrary value 1.00), P100 assay number 5: assay 5; for Binding to P100 relative to ZElan021 (arbitrary value 1.00), P100 assay number 6: assay 6; for Binding to P100 relative to ZElan021 (arbitrary value 1.00), P100 assay number 7: assay 7; for Binding to P100 relative to ZElan021 (arbitrary value 1.00), P100 assay number 8: assay 8
Procedure: Similar to the methods described in the above-referenced WO 98/51325, Caco-2 cell membrane (P100) and cytosolic (S100) fractions were prepared using a modification of the method described in Kinsella, B. T., O'Mahony, D. J. and G. A. FitzGerald, 1994, J. Biol. Chem. 269(47): 29914-29919. Confluent Caco-2 cell monolayers (grown in 75 cm^2 flasks for up to 1 week at 37° C. and 5% CO2) were washed twice in Dulbecco's PBS (DPBS) and the cells were harvested by centrifugation at 1000 rpm after treatment with 10 mM EDTA-DPBS. The cells were washed 3 times in DPBS and the final cell pellet was resuspended in 3 volumes of ice cold HED buffer (20 mM HEPES (pH 7.67), 1 mM EGTA, 0.5 mM dithiothreitol, 1 mM phenylmethylsulphonyl fluoride (PMSF)). The cells were allowed to swell for 5 min on ice prior to homogenization for 30 sec. The homogenates were centrifuged at 40,000 rpm for 45 min at 4° C. The supernatant (S100) was removed and the pellet (P100) was resuspended in HEDG buffer (20 mM HEPES (pH 7.67), 1 mM EGTA, 0.5 mM dithiothreitol, 100 mM NaCl, 10% glycerol, 1 mM PMSF). Protein concentrations were determined using the Bradford assay (Bradford, M. M., 1976, Anal. Biochem. 72: 248-254).
Binding of peptides to membrane (P100) was assessed by detection of the dansyl moiety incorporated in the peptide. Costar ninety six well ELISA plates were coated with P100 fractions (100 μg/ml in 0.05 M NaHCO3 (pH 9.6); 100 μl/well) overnight at 4° C. The plates were blocked with 2% Marvel-DPBS for 1 h at room temperature and washed 3 times in 1% DPBS-Tween. Peptides (200 μg/ml in 2% Marvel-DPBS) were serially diluted on the plates and incubated for 1 h at room temperature. The plates were washed 5 times and the dansylated peptides were detected using i) mouse anti-dansyl antiserum (Cytogen DB3-226.3; 1:1340 dilution in 2% Marvel-DPBS) or ii) rabbit anti-dansyl antiserum (La Jolla Diagnostics LAJD-119; 1:1000 dilutions) for 1 h at room temperature. The plates were washed 3 times prior to incubation with i) goat anti-mouse IgGλ:HRP antibody (Southern Biotechnology 1060-05; 1:10,000 dilution in 2% Marvel-DPBS) or ii) anti-rabbit IgG HRP (Sigma A-0545, 1:8,000) for 1 h at room temperature. After 3 washes, reactions were visualized using K Blue Substrate and Red Stop Solution (Neogen Co. 300176 & 301475, respectively) at 650 nm.
ZElan021, full length HAX42 [K(dns)-[…]] (SEQ ID NO:53; dansylated version is SEQ ID NO:8) was given the arbitrary value of 1.00 for binding to P100 at a given peptide concentration determined from the signal-to-noise ratio data. […] Assay number 1 was at 20 μg/ml; 2 and 3 were at 50 μg/ml; and 4 through 8 were at 25 μg/ml.
KD values, or the concentration of the peptide required to reach half maximal binding to Caco-2 P100 fractions, are given in Table 3 for ZElan021, full length HAX42, [K(dns)-[…]] (SEQ ID NO:53; dansylated version is SEQ ID NO:8), HAX42 fragment ZElan091, and the retro-inverted form of this fragment, ZElan146 as well as for ZElan018, full length PAX2, [K(dns)-STPPSREAYSRPYSVDS […]] (SEQ ID NO:7; dansylated version is SEQ ID NO:15), PAX2 fragment ZElan129, and the retro-inverted form of this fragment, ZELan144.

For K(dns)-PGDYNCCGNGNSTG [ZElan091], the Kd was 0.75 µM, the “Binding to P100 relative to ZElan021 (arbitrary value 1.00), P100 assay number 4” value was 2.02 and the “Binding to P100 relative to ZElan021 (arbitrary value 1.00), P100 assay number 5” value was 1.37. For the same substance, the “Binding to P100 relative to ZElan021 (arbitrary value 1.00), P100 assay number 6” value was 1.20 and the “Binding to P100 relative to ZElan021 (arbitrary value 1.00), P100 assay number 7” value was 0.85.

In the case of “K(dns)-SDHALGTNLRSDNAKEPGDYNCCGNGNSTGRKVFNRRRPSAIPT (K(Dansyl)SDHALGTNLRSDNAKEPGDYNCCGNGNSTGRKVFNRRRPSAIPT; cysteine pairing not given here) [ZElan021, dansylated full length HAX42]”, the Kd is reported as 6.7 µM, the “Binding to P100 relative to ZElan021 (arbitrary value 1.00), P100 assay number 1” value (assay 1, peptide at 20 μg/ml) is reported as 1.00 and the “Binding to P100 relative to ZElan021 (arbitrary value 1.00), P100 assay number 2” value (assay 2, peptide at 50 μg/ml) is reported as 1.00. The “Binding to P100 relative to ZElan021 (arbitrary value 1.00), P100 assay number 3” value (assay 3, peptide at 50 μg/ml) was 1.00, the “Binding to P100 relative to ZElan021 (arbitrary value 1.00), P100 assay number 4” value was 1.00 and the “Binding to P100 relative to ZElan021 (arbitrary value 1.00), P100 assay number 5” value was 1.00. The “Binding to P100 relative to ZElan021 (arbitrary value 1.00), P100 assay number 6” value was 1.00, the “Binding to P100 relative to ZElan021 (arbitrary value 1.00), P100 assay number 7” value was 1.14 and the “Binding to P100 relative to ZElan021 (arbitrary value 1.00), P100 assay number 8” value was 0.94.

“K(dns)-STPPSREAYSRPYSVDS DSDTNAKHSSHNRRLRTRSRPNG (K(Dansyl)STPPSREAYSRPYSVDSDSDTNAKHSSHNRRLRTRSRPNG) [ZElan018, dansylated full length PAX2]” was tested, and the Kd was greater than 50 µM.

With “K(dns)-TNAKHSSHNRRLRTR (K(Dansyl)TNAKHSSHNRRLRTR) [ZElan129, dansylated PAX2 15 mer fragment]” the Kd was 29.6 µM.

K(dns)-gtsngngccnydgp [ZElan146] was tested, and the Kd was 21.7 µM, the “Binding to P100 relative to ZElan021 (arbitrary value 1.00), P100 assay number 7” value was 0.36 and the “Binding to P100 relative to ZElan021 (arbitrary value 1.00), P100 assay number 8” value was 0.72.

Substance K(dns)-rtrlrrnhsshkant [ZElan144] has a Kd of 28.8 µM.
